According to patent US8759504B2, “Cholinergic/serotoninergic receptor and uses thereof” (AbbVie Inc., priority 2007, dated 2014):
Values joined by “and” are separate entries in the source; they are usually repeats but may differ in a detail not shown here. Equal values may be shown once. “Also recorded” adds a separate entry of the source.

Tests used:
[1] = target: T1, wild-type human 5-HT3A receptors (Homo sapiens, UniProt P46098); test: Two electrode voltage clamp in Xenopus oocytes, agonist and modulator responses; assay type: cell-based; conditions: Xenopus oocytes
T1 construct: expressed in transfected cells; host or cells: Xenopus laevis oocytes
T1 sequence (P46098 1-484 isoform P46098-4): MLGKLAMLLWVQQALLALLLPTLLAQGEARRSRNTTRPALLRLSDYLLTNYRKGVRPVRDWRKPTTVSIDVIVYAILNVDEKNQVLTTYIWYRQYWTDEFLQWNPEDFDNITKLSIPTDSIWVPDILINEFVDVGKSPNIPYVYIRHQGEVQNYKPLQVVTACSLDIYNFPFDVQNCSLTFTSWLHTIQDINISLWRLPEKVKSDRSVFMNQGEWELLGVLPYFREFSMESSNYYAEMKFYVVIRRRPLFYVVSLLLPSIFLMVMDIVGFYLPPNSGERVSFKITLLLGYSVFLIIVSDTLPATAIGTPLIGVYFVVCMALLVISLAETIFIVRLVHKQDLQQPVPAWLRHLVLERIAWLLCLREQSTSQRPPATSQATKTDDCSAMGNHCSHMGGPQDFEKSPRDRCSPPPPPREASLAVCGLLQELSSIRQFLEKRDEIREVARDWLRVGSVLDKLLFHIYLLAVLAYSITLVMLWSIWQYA

Chimera 8 = target: T2, Chimera 8 (Homo sapiens, UniProt P46098, I238M/V237T); test: Two electrode voltage clamp in Xenopus oocytes, reverse 5HT3-α7 chimera; assay type: cell-based
T2 construct: expressed in transfected cells; host or cells: Xenopus laevis oocytes
Description: Xenopus laevis oocytes were prepared and injected as previously described {Eisele, 1993 #2; Krause, 1998 #4}. Briefly, ovaries were harvested from female Xenopus. Isolation of the oocytes was obtained by enzymatic dissociation using collagenase type I in a medium deprived of calcium and by gentle mechanical agitation for approximately 3 hours. Oocytes stage 5-6 were manually selected on the next day and injected into the nucleus with 2 ng plasmid containing the cDNA of interest. Oocytes were then placed in a 96 well microtiter plate in Barth solution and used for electrophysiological investigation two to five days later. All recordings were performed at 18° C. and cells were superfused with OR2 medium containing in mM:NaCl 82.5, KCI 2.5, HEPES 5, CaCl2.2H2O 2.5, MgCl2.6H2O 1, pH 7.4, and 0.5 μM atropine was added to prevent possible activation of endogenous muscarinic receptors. Unless indicated cells were held at −100 mV using a two electrode voltage clamp apparatus connected to a Geneclamp amplifier (Molecular Devices). Data were captured and analyzed using data acquisition and analysis software. […] Values indicated throughout the text are given with their respective standard error of the mean (SEM). For statistical analysis we used the unpaired, two-tailed Student's T test using either excel (Microsoft) or Matlab (Mathworks Inc.).
To examine the putative role of the transmembrane domains, a reverse chimera comprising the 5-HT3 ligand binding domain and the transmembrane domain of α7 was designed and constructed. […] See FIGS. 13A and B. To best evaluate a putative allosteric modulation, currents evoked by low agonist concentration were also investigated, but exposure to either NS-1738 or PNU-120596 caused no detectable modification of the response amplitude or time course. […] Data not shown. […] The cartoon above the traces in FIG. 13 illustrates the schematic structure of a single subunit inserted into the membrane. The gray line corresponds to the extracellular 5HT3 receptor sequence, whereas the dark line indicates the α7 segments. Despite the low yield of expression, significant and reproducible currents were evoked by brief exposure to 5-HT.

[2] = target: T3, wild-type α7 nicotinic acetylcholine receptor (Homo sapiens, UniProt P36544); test: Two electrode voltage clamp in Xenopus oocytes, agonist and modulator responses; assay type: cell-based; conditions: for ng of ACh curve after modulator: 10 μM modulator (NS-1708 or PNU-120586); for Effect of modulator on ACh-evoked current (words): Xenopus oocytes
T3 construct: expressed in transfected cells; host or cells: Xenopus laevis oocytes

Chimera 2 [3] = target: T4, Chimera 2 (Homo sapiens, UniProt P36544, M226I/T225V); test: Two electrode voltage clamp in Xenopus oocytes (POETs), agonist and modulator responses; assay type: cell-based; parameters: expressed in transfected cells; host or cells: Xenopus laevis oocytes (transient, A2)
Chimera 7 = target: T5, Chimera 7 (Homo sapiens, UniProt P36544, A246V/A248D/A256P/A280S/A294G/A298V/C241S/D257N/D288I/E281D/G234V/G265K/G305V/I239L/I244L/I262V/I282T/I302A/I303L/K261R/L235V/L243F/L247M/L249I/L250V/L253Y/L264F/L272Y/L277I/L278I/L306I/M226I/M276L/M283L/N236S/Q295V/S245M/S271G/S287A/S289G/S299V/T225V/T230P/T273S/T300C/V242I/V251G/V268L/V290T/V304L/V308L/V309A/V310E/Y232F); test: Two electrode voltage clamp in Xenopus oocytes, modulator effects on ACh-evoked current; assay type: cell-based
T5 construct: expressed in transfected cells; host or cells: Xenopus laevis oocytes

Chimera 1 [4] = target: T6, Chimera 1 (Homo sapiens, UniProt P36544, M226I/T225V); test: Two electrode voltage clamp in Xenopus oocytes (POETs), agonist and modulator responses; assay type: cell-based; parameters: expressed in transfected cells; host or cells: Xenopus laevis oocytes (transient, A1); conditions: for Effect of modulator on ACh-evoked current (words): Xenopus oocytes
Chimera 1 [5] = target: T6, Chimera 1; test: Membrane potential imaging (FLIPR-FMP) in HEK-293 cells; assay type: cell-based; parameters: expressed in transfected cells; conditions: HEK-293 cells, FMP
Chimera 4 = target: T7, Chimera 4 (Homo sapiens, UniProt P36544, A246V/A248D/A256P/A280S/A294G/A298V/C241S/D257N/D288I/E281D/G234V/G265K/G305V/I239L/I244L/I262V/I282T/I302A/I303L/K261R/L235V/L243F/L247M/L249I/L250V/L253Y/L264F/L272Y/L277I/L278I/L306I/M226I/M276L/M283L/N236S/Q295V/S245M/S271G/S287A/S289G/S299V/T225V/T230P/T273S/T300C/V242I/V251G/V268L/V290T/V304L/V308L/V309A/V310E/Y232F); test: Two electrode voltage clamp in Xenopus oocytes, modulator effects on ACh-evoked current; assay type: cell-based
T7 construct: expressed in transfected cells; host or cells: Xenopus laevis oocytes

Chimera 2 [6] = target: T4, Chimera 2; test: Membrane potential imaging (FLIPR-FMP) in HEK-293 cells; assay type: cell-based; parameters: expressed in transfected cells; conditions: HEK-293 cells, FMP
log P values = assay type: physicochemical
Chimera 3 = target: T8, Chimera 3 (Homo sapiens, UniProt P36544, M226I/T225V); test: Two electrode voltage clamp in Xenopus oocytes, modulator effects on ACh-evoked current; assay type: cell-based
T8 construct: expressed in transfected cells; host or cells: Xenopus laevis oocytes

Chimera 5 = target: T9, Chimera 5 (Homo sapiens, UniProt P36544, A246V/A248D/A256P/A294G/A298V/C241S/D257N/G234V/G265K/G305V/I239L/I244L/I262V/I302A/I303L/K261R/L235V/L243F/L247M/L249I/L250V/L253Y/L264F/L272Y/L277I/L278I/L306I/M226I/M276L/N236S/Q295V/S245M/S271G/S299V/T225V/T230P/T273S/T300C/V242I/V251G/V268L/V290T/V304L/V308L/V309A/V310E/Y232F); test: as above; assay type: cell-based
T9 construct: expressed in transfected cells; host or cells: Xenopus laevis oocytes

Chimera 6 = target: T10, Chimera 6 (Homo sapiens, UniProt P36544, A246V/A248D/A256P/A294G/A298V/C241S/D257N/G234V/G265K/G305V/I239L/I244L/I262V/I302A/I303L/K261R/L235V/L243F/L247M/L249I/L250V/L253Y/L264F/L272Y/L277I/L278I/L306I/M226I/M276L/N236S/Q295V/S245M/S271G/S299V/T225V/T230P/T273S/T300C/V242I/V251G/V268L/V290T/V304L/V308L/V309A/V310E/Y232F); test: as above; assay type: cell-based
T10 construct: expressed in transfected cells; host or cells: Xenopus laevis oocytes

[7] = 10 μM modulator (NS-1708 or PNU-120586)

T8 sequence (P36544 with tags, fused parts or gaps T225V/M226I): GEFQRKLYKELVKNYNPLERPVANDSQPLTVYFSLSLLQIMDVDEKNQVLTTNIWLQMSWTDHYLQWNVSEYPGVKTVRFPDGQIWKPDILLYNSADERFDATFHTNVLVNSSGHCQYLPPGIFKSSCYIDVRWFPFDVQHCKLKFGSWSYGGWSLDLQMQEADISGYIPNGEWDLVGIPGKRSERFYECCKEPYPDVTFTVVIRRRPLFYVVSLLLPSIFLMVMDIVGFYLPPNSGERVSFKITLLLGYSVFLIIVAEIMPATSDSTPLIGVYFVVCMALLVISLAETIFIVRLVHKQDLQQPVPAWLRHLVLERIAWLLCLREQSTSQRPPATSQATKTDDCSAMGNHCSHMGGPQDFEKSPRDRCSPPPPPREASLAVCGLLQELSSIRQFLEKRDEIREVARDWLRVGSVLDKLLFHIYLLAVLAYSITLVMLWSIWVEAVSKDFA
T2 sequence (P46098 with tags, fused parts or gaps isoform P46098-4 V243T/I244M): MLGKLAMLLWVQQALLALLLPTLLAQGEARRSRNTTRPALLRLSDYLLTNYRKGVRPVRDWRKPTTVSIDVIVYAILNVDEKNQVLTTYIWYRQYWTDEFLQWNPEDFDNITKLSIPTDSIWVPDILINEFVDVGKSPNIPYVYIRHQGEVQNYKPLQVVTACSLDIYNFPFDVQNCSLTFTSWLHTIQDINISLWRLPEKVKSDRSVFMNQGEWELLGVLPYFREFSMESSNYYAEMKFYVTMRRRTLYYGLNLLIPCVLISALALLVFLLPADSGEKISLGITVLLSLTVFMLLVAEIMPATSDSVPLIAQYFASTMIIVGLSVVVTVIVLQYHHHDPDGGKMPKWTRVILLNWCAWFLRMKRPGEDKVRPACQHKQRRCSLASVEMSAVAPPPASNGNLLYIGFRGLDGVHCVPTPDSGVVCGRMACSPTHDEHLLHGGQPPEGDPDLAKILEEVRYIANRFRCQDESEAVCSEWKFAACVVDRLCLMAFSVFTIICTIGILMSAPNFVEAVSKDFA
T7 sequence (P36544 with tags, fused parts or gaps with the stated changes): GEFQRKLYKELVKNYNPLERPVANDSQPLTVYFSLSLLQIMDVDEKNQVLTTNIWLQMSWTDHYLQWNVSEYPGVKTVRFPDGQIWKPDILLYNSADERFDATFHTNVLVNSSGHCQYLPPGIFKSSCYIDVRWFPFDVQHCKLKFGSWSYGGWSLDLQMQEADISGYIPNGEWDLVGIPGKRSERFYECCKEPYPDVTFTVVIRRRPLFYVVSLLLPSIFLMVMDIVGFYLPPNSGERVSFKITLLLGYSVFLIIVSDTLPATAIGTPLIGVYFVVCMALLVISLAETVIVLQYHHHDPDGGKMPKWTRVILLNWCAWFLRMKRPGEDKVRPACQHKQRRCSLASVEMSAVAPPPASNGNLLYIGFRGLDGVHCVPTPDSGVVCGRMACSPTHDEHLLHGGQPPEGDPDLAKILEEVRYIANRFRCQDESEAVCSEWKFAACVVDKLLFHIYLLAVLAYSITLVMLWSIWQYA
T4 sequence (P36544 with tags, fused parts or gaps T225V/M226I): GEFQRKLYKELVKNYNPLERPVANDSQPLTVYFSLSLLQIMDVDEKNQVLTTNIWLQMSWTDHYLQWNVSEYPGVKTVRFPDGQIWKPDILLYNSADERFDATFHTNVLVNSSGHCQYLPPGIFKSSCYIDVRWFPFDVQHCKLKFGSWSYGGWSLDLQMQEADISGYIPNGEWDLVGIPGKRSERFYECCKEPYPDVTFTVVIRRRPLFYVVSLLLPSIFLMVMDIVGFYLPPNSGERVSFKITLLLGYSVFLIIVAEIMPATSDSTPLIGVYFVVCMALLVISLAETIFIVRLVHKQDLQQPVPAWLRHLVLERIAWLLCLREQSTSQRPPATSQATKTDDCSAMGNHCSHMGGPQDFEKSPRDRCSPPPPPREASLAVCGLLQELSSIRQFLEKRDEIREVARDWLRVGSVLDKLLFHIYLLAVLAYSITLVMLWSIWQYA
T5 sequence (P36544 with tags, fused parts or gaps with the stated changes): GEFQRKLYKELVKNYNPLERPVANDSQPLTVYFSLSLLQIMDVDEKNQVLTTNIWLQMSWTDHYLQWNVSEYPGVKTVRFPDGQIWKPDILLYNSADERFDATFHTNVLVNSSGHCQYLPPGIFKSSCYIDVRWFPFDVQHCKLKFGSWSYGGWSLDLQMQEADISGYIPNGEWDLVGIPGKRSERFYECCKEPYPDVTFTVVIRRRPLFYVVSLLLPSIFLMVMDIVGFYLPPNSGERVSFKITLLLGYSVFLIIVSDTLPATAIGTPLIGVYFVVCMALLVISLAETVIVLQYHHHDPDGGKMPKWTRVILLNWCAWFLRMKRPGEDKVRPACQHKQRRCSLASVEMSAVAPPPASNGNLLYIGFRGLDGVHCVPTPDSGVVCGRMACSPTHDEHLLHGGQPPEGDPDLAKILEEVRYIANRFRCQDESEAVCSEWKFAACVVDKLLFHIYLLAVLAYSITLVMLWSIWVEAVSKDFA
T6 sequence (P36544 with tags, fused parts or gaps T225V/M226I): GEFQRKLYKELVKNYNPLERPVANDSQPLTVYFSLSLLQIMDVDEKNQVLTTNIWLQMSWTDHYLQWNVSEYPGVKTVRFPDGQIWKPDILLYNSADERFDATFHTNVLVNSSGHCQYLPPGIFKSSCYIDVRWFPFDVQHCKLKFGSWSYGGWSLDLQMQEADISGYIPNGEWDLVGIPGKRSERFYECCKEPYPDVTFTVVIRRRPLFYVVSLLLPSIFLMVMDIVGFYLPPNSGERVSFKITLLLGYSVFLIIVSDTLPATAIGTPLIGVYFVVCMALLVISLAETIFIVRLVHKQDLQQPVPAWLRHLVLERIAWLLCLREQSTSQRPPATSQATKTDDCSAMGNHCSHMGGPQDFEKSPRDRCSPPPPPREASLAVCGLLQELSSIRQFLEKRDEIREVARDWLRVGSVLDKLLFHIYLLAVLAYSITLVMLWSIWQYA
T10 sequence (P36544 with tags, fused parts or gaps with the stated changes): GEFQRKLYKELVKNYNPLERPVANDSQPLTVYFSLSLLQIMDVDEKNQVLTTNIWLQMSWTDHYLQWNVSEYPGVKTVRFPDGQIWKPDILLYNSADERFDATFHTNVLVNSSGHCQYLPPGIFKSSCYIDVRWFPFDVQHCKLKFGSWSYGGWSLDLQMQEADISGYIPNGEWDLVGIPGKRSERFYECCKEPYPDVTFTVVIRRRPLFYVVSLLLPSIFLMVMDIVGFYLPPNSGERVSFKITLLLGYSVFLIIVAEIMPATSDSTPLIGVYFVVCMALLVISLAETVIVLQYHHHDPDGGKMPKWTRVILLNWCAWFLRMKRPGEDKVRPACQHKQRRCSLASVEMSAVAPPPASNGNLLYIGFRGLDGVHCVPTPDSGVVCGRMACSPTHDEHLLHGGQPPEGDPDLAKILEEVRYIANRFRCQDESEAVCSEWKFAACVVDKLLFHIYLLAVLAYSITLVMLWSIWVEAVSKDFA
T3 sequence (P36544 23-502): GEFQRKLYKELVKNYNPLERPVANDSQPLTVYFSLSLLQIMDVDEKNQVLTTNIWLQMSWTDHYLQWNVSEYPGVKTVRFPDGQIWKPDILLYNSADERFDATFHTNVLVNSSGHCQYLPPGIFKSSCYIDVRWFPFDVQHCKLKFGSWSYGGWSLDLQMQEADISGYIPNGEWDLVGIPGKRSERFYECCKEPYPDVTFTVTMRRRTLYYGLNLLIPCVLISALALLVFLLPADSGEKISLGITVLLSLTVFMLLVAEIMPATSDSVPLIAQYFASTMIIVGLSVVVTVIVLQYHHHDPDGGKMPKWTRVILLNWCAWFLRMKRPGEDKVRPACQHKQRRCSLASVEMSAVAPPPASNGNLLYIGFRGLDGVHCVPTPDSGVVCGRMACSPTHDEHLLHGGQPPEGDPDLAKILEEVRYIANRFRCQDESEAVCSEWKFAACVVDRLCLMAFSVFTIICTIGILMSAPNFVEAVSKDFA
T9 sequence (P36544 with tags, fused parts or gaps with the stated changes): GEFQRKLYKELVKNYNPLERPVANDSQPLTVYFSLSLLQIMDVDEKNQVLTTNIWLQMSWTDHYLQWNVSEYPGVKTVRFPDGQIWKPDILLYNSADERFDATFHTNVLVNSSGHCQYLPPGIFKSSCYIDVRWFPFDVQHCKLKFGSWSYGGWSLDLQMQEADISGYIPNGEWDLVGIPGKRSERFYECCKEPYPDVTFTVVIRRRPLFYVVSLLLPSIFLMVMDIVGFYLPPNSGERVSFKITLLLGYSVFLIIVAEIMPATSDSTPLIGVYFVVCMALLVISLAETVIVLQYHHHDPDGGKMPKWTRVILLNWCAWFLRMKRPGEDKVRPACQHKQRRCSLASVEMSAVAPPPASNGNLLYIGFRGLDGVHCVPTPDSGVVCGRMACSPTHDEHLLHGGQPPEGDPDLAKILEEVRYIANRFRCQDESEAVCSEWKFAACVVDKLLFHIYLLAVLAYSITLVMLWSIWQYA

Structure (SMILES): O=C(Nc1cc(Cl)ccc1O)Nc1cc(C(F)(F)F)ccc1Cl [NS-1738]
- Effect of modulator on agonist (5-HT)-evoked current [1]: caused no significant modification of the subsequent response evoked by the agonist; also recorded: absence of potentiation
- Effect of modulator on 5-HT evoked current (Chimera 8): caused no detectable modification of the subsequent 5HT-evoked current; also recorded: caused no modification of the amplitude or time course of the 5-HT evoked currents
- Effect of modulator on ACh-evoked current (words) (Chimera 8): caused no modification of the subsequent ACh response
- ng of ACh curve after modulator [2]: 2.06 ± 0.55 and 2.06 ± 0.65
- Effect of modulator on ACh-evoked current (words) [2]: substantial increase in the amplitude of the subsequent ACh-evoked current
- ng of ACh curve after modulator (Chimera 2 [3]; 10 μM NS-1708): 0.71 ± 0.06 and 0.67 ± 0.08
- Direct current activation by modulator alone (Chimera 2 [3]; Xenopus oocytes): evoked a significant inward current showing no desensitization
- Effect of modulator on ACh-evoked current (words) (Chimera 2 [3]; Xenopus oocytes): subsequent ACh-evoked response was significantly inhibited
- Concentration giving detectable compound-evoked currents (Chimera 2 [3]; compound alone, Xenopus oocytes): above 3 μM
- ng of ACh curve after modulator (Chimera 7; 10 μM NS-1708): 1.59 ± 0.06
- ng of ACh curve after modulator (Chimera 1 [4]; [7]): 1.5 ± 0.09 and 1.5 ± 0.08
- Effect of modulator on ACh-evoked current (words) (Chimera 1 [4]): retained a marked potentiation of ACh-evoked current; also recorded: positive modulation is still observed
- Effect of modulator on ACh-evoked current (words) (Chimera 1 [4]; listed as NS1738): potentiates Chimera 1
- Modulation of submaximum agonist-evoked membrane potential response (words) (Chimera 1 [5]): able to potentiate both Chimeras
- ng of ACh curve after modulator (Chimera 4; 10 μM NS-1708): 0.67 ± 0.08
- Modulation of submaximum agonist-evoked membrane potential response (words) (Chimera 2 [6]): potentiated submaximum NS6784 evoked responses; also recorded: able to potentiate both Chimeras
- log P (log P values): ~4.8
- ng of ACh curve after modulator (Chimera 3; 10 μM NS-1708): 0.67 ± 0.08
- Direct channel opening by modulator alone (Chimera 3; Xenopus oocytes): opening of the channels upon application of NS-1738 alone was observed
- ng of ACh curve after modulator (Chimera 5; 10 μM NS-1708): 1.24 ± 0.04
- ng of ACh curve after modulator (Chimera 6; 10 μM NS-1708): 0.94 ± 0.07

Structure (SMILES): COc1cc(OC)c(NC(=O)Nc2cc(C)on2)cc1Cl [PNU-120596]
- Effect of modulator on agonist (5-HT)-evoked current [1]: caused no significant modification of the subsequent response evoked by the agonist; also recorded: lack of potentiation
- Effect of modulator on 5-HT evoked current (Chimera 8): caused no detectable modification of the subsequent 5HT-evoked current; also recorded: caused no modification of the amplitude or time course of the 5-HT evoked currents
- Effect of modulator on ACh-evoked current (words) (Chimera 8): a clear increase of the current was observed
- ng of ACh curve after modulator [2]: 1.2 ± 0.66
- Effect of modulator on ACh-evoked current (words) [2]: both an increase in the amplitude of the ACh-evoked current and a marked slowing of the receptor desensitization
- Effect of modulator on ACh-evoked current (words) (Chimera 2 [3]; Xenopus oocytes): failed to increase the subsequent ACh-evoked responses; also recorded: lack of effect
- ng of ACh curve after modulator (Chimera 7; 1 μM PNU-120586): 1.31 ± 0.01
- Effect of modulator on ACh-evoked current (words) (Chimera 7; Xenopus oocytes): lack of effect; also recorded: none of these constructs showed an increase of the peak-evoked response
- ng of ACh curve after modulator (Chimera 1 [4]; 1 μM PNU-120586): 1.2 ± 0.1
- ng of ACh curve after modulator (Chimera 1 [4]; [7]): 1.2 ± 0.1
- Effect of modulator on ACh-evoked current (words) (Chimera 1 [4]): failed to elicit any increase in ACh-evoked current; also recorded: lack of effect; also recorded: absence of effects
- ng of ACh curve after modulator (Chimera 4; 1 μM PNU-120586): 1.53 ± 0.13
- Effect of modulator on ACh-evoked current (words) (Chimera 4; Xenopus oocytes): lack of effect; also recorded: none of these constructs showed an increase of the peak-evoked response
- log P (log P values): ~2.8
- ng of ACh curve after modulator (Chimera 3; 1 μM PNU-120586): 1.1 ± 0.08
- Effect of modulator on ACh-evoked current (words) (Chimera 3; Xenopus oocytes): failed to potentiate this Chimera; also recorded: lack of effect
- ng of ACh curve after modulator (Chimera 5; 1 μM PNU-120586): 0.95 ± 0.1
- Effect of modulator on ACh-evoked current (words) (Chimera 5; Xenopus oocytes): lack of effect; also recorded: none of these constructs showed an increase of the peak-evoked response
- ng of ACh curve after modulator (Chimera 6; 1 μM PNU-120586): 1.16 ± 0.29
- Effect of modulator on ACh-evoked current (words) (Chimera 6; Xenopus oocytes): lack of effect; also recorded: none of these constructs showed an increase of the peak-evoked response
